26 compounds from patent US10975077B2 (Novira Therapeutics, Inc., priority 2016, dated 2021) can be followed below.

The first assay has as its system HBV (encapsidated HBV DNA, HepG2.2.15 cells). Kind of assay: HBV replication inhibition assay, BDNA assay in HepG2.2.15 cells. The assay is classed as cell-based. Particulars: Activity in BDNA-assay. The procedure, abridged:
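HepG2.2.15 cells (stably integrated HBV, 40,000/well) treated with serially diluted compound in 0.5% DMSO for 6 days, medium and compound refreshed at day 3. DNase-treated supernatant lysed with proteinase K; encapsidated HBV DNA quantified by bDNA, percent inhibition versus DMSO controls, EC50 by nonlinear fit.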
Turning to `C[C@@H]1Cc2nn3c(c2CN1C(=O)Nc1ccc(F)c(C(F)(F)F)c1)C(=O)N(C)CC(F)(CO)C3` (single isomer, unassigned) [Compound 133_D2, (3R,8S*)-8-fluoro-N-(4-fluoro-3-(trifluoromethyl)phenyl)-8-(hydroxymethyl)-3,10-dimethyl-11-oxo-1,3,4,7,8,9,10,11-octahydro-2H-pyrido[4′,3′:3,4]pyrazolo[1,5-a][1,4]diazepine-2-carboxamide_D2], the EC50 – broadly, the concentration at which the effect is half-maximal – lay in the range of 1 to 100 nM.

In the case of `C[C@@H]1Cc2nn3c(c2CN1C(=O)Nc1ccc(F)c(C#N)c1)C(=O)N(C)CC(F)C3` (single isomer, unassigned) [Compound 137_D2, (3R,8S*)-N-(3-Cyano-4-fluorophenyl)-8-fluoro-3,10-dimethyl-11-oxo-1,3,4,7,8,9,10,11-octahydro-2H-pyrido[4′,3′:3,4]pyrazolo[1,5-a][1,4]diazepine-2-carboxamide], the 50% effective concentration (EC50) lay within 1 to 100 nM.

Still in this assay, the particulars now being: Hepatitis B virus, HepG2.2.15, Activity in BDNA-assay.
As for `C[C@@H]1Cc2nn3c(c2CN1C(=O)Nc1ccc(F)c(C(F)(F)F)c1)C(=O)N(C)CC(F)(CO)C3` (single isomer, unassigned) [Compound 133_D1, (3R,8R*)-8-fluoro-N-(4-fluoro-3-(trifluoromethyl)phenyl)-8-(hydroxymethyl)-3,10-dimethyl-11-oxo-1,3,4,7,8,9,10,11-octahydro-2H-pyrido[4′,3′:3,4]pyrazolo[1,5-a][1,4]diazepine-2-carboxamide_D1], the EC50 fell in the range of 1 to 100 nM. In the case of `C[C@@H]1Cc2nn3c(c2CN1C(=O)Nc1ccc(F)c(C#N)c1)C(=O)N(C)CC(F)C3` (single isomer, unassigned) [Compound 137_D1, (3R,8R*)—N-(3-cyano-4-fluorophenyl)-8-fluoro-3,10-dimethyl-11-oxo-1,3,4,7,8,9,10,11-octahydro-2H-pyrido[4′,3′:3,4]pyrazolo[1,5-a][1,4]diazepine-2-carboxamide_D1], the concentration for a half-maximal effect (EC50) was in the range of 1 to 100 nM. Consider `C[C@@H]1Cc2nn3c(c2CN1C(=O)Nc1ccc(F)c(C(F)(F)F)c1)C(=O)N(C)CC(F)C3` (single isomer, unassigned) [Compound 138, (3R,8R*)-8-fluoro-N-(4-fluoro-3-(trifluoromethyl)phenyl)-3,10-dimethyl-11-oxo-1,3,4,7,8,9,10,11-octahydro-2H-pyrido[4′,3′:3,4]pyrazolo[1,5-a][1,4]diazepine-2-carboxamide], for which the EC50 fell in the range of 1 to 100 nM. `C=C1CN(C)C(=O)c2c3c(nn2C1)CCN(C(=O)Nc1ccc(F)c(Cl)c1)C3` [Compound 001, N-(3-chloro-4-fluorophenyl)-10-methyl-8-methylene-11-oxo-1,3,4,7,8,9,10,11-octahydro-2H-pyrido[4′,3′:3,4]pyrazolo[1,5-a][1,4]diazepine-2-carboxamide]: the EC50 was 1 to 100 nM. On the same count and under the same terms, the same measure for `CN1CC(O)(CO)Cn2nc3c(c2C1=O)CN(C(=O)Nc1ccc(F)c(Cl)c1)CC3` (centres unmarked) [Compound 003]: 500 to 1000 nM; for `CN1CC(O)Cn2nc3c(c2C1=O)CN(C(=O)Nc1ccc(F)c(Cl)c1)CC3` (centres unmarked) [Compound 004, N-(3-chloro-4-fluorophenyl)-8-hydroxy-10-methyl-11-oxo-1,3,4,7,8,9,10,11-octahydro-2H-pyrido[4′,3′:3,4]pyrazolo[1,5-a][1,4]diazepine-2-carboxamide]: 1 to 100 nM; for `CN1CC(F)(F)Cn2nc3c(c2C1=O)CN(C(=O)Nc1ccc(F)c(Cl)c1)CC3` [Compound 005, N-(3-chloro-4-fluorophenyl)-8,8-difluoro-10-methyl-11-oxo-1,3,4,7,8,9,10,11-octahydro-2H-pyrido[4′,3′:3,4]pyrazolo[1,5-a][1,4]diazepine-2-carboxamide]: 1 to 100 nM. For `CN1CC(F)Cn2nc3c(c2C1=O)CN(C(=O)Nc1ccc(F)c(Cl)c1)CC3` (centres unmarked) [Compound 006, N-(3-chloro-4-fluorophenyl)-8-fluoro-10-methyl-11-oxo-1,3,4,7,8,9,10,11-octahydro-2H-pyrido[4′,3′:3,4]pyrazolo[1,5-a][1,4]diazepine-2-carboxamide], the EC50 is 1 to 100 nM. With `CN1CC(F)Cn2nc3c(c2C1=O)CN(C(=O)Nc1ccc(F)c(Br)c1)CC3` (centres unmarked) [Compound 007, N-(3-bromo-4-fluorophenyl)-8-fluoro-10-methyl-11-oxo-1,3,4,7,8,9,10,11-octahydro-2H-pyrido[4′,3′:3,4]pyrazolo[1,5-a][1,4]diazepine-2-carboxamide], the EC50 was in the range of 1 to 100 nM.

On to `CN1CC(F)Cn2nc3c(c2C1=O)CN(C(=O)Nc1ccnc(Br)c1F)CC3` (centres unmarked) [Compound 008, N-(2-bromo-3-fluoropyridin-4-yl)-8-fluoro-10-methyl-11-oxo-1,3,4,7,8,9,10,11-octahydro-2H-pyrido[4′,3′:3,4]pyrazolo[1,5-a][1,4]diazepine-2-carboxamide], for which the EC50 fell in the range of 1 to 100 nM. Consider `CN1CC(F)Cn2nc3c(c2C1=O)CN(C(=O)Nc1ccc(F)c(C#N)c1)CC3` (centres unmarked) [Compound 009, N-(3-cyano-4-fluorophenyl)-8-fluoro-10-methyl-11-oxo-1,3,4,7,8,9,10,11-octahydro-2H-pyrido[4′,3′:3,4]pyrazolo[1,5-a][1,4]diazepine-2-carboxamide], for which the EC50 lay in the range of 1 to 100 nM. The same measure, in the same setting: the same measure for `Cc1cc(NC(=O)N2CCc3nn4c(c3C2)C(=O)N(C)CC(F)C4)ccc1F` (centres unmarked) [Compound 010, 8-fluoro-N-(4-fluoro-3-methylphenyl)-10-methyl-11-oxo-1,3,4,7,8,9,10,11-octahydro-2H-pyrido[4′,3′:3,4]pyrazolo[1,5-a][1,4]diazepine-2-carboxamide]: 1 to 100 nM; for `CN1CC(F)Cn2nc3c(c2C1=O)CN(C(=O)Nc1ccc(F)c(C(F)(F)F)c1)CC3` (centres unmarked) [Compound 011, 8-fluoro-N-(4-fluoro-3-(trifluoromethyl)phenyl)-10-methyl-11-oxo-1,3,4,7,8,9,10,11-octahydro-2H-pyrido[4′,3′:3,4]pyrazolo[1,5-a][1,4]diazepine-2-carboxamide]: 1 to 100 nM; for `CN1CC(F)Cn2nc3c(c2C1=O)CN(C(=O)Nc1cc(Cl)c(F)cc1F)CC3` (centres unmarked) [Compound 012, N-(5-chloro-2,4-difluorophenyl)-8-fluoro-10-methyl-11-oxo-1,3,4,7,8,9,10,11-octahydro-2H-pyrido[4′,3′:3,4]pyrazolo[1,5-a][1,4]diazepine-2-carboxamide]: 1 to 100 nM. Turning to `CN1CC(F)Cn2nc3c(c2C1=O)CN(C(=O)Nc1cc(Br)c(F)cc1F)CC3` (centres unmarked) [Compound 013, N-(5-bromo-2,4-difluorophenyl)-8-fluoro-10-methyl-11-oxo-1,3,4,7,8,9,10,11-octahydro-2H-pyrido[4′,3′:3,4]pyrazolo[1,5-a][1,4]diazepine-2-carboxamide], the EC50 was in the range of 1 to 100 nM. As for `CC1CN(C)C(=O)c2c3c(nn2C1)CCN(C(=O)Nc1ccc(F)c(Cl)c1)C3` (centres unmarked) [Compound 014, N-(3-chloro-4-fluoro-phenyl)-8,10-dimethyl-11-oxo-1,3,4,7,8,9-hexahydropyrido[2,3]pyrazolo[2,4-b][1,4]diazepine-2-carboxamide], the EC50 was 1 to 100 nM. Same read-out and setting: the same measure for `CN1CCCn2nc3c(c2C1=O)CN(C(=O)Nc1ccc(F)c(Cl)c1)CC3` [Compound 015, N-(3-chloro-4-fluoro-phenyl)-10-methyl-11-oxo-1,3,4,7,8,9-hexahydropyrido [2,3]pyrazolo[2,4-b][1,4]diazepine-2-carboxamide]: 1 to 100 nM; for `CCOC1CN(C)C(=O)c2c3c(nn2C1)CCN(C(=O)Nc1ccc(F)c(Cl)c1)C3` (centres unmarked) [Compound 017, N-(3-chloro-4-fluorophenyl)-8-ethoxy-10-methyl-11-oxo-1,3,4,7,8,9,10,11-octahydro-2H-pyrido[4′,3′:3,4]pyrazolo[1,5-a][1,4]diazepine-2-carboxamide]: 1 to 100 nM. In the case of `CN1CC(N)Cn2nc3c(c2C1=O)CN(C(=O)Nc1ccc(F)c(Cl)c1)CC3` (centres unmarked) [Compound 019, 8-amino-N-(3-chloro-4-fluorophenyl)-10-methyl-11-oxo-1,3,4,7,8,9,10,11-octahydro-2H-pyrido[4′,3′:3,4]pyrazolo[1,5-a][1,4]diazepine-2-carboxamide], the EC50 was 100 to 500 nM.

For `CN1CC(N(C)C)Cn2nc3c(c2C1=O)CN(C(=O)Nc1ccc(F)c(Cl)c1)CC3` (centres unmarked) [Compound 020, N-(3-chloro-4-fluorophenyl)-8-(dimethylamino)-10-methyl-11-oxo-1,3,4,7,8,9,10,11-octahydro-2H-pyrido[4′,3′:3,4]pyrazolo[1,5-a][1,4]diazepine-2-carboxamide], the concentration giving a half-maximal response (EC50) was in the range of 1 to 100 nM.

As to `CN1CC(N2CCOCC2)Cn2nc3c(c2C1=O)CN(C(=O)Nc1ccc(F)c(Cl)c1)CC3` (centres unmarked) [Compound 021, N-(3-chloro-4-fluorophenyl)-10-methyl-8-morpholino-11-oxo-1,3,4,7,8,9,10,11-octahydro-2H-pyrido[4′,3′:3,4]pyrazolo[1,5-a][1,4]diazepine-2-carboxamide], the EC50 was in the range of 100 to 500 nM. As for `CN1CC(N2CC(F)(F)C2)Cn2nc3c(c2C1=O)CN(C(=O)Nc1ccc(F)c(Cl)c1)CC3` (centres unmarked) [Compound 022, N-(3-chloro-4-fluorophenyl)-8-(3,3-difluoroazetidin-1-yl)-10-methyl-11-oxo-1,3,4,7,8,9,10,11-octahydro-2H-pyrido[4′,3′:3,4]pyrazolo[1,5-a][1,4]diazepine-2-carboxamide], the concentration for a half-maximal effect (EC50) was 100 to 500 nM. For the compound `CN1CC(N2CCC2)Cn2nc3c(c2C1=O)CN(C(=O)Nc1ccc(F)c(Cl)c1)CC3` (centres unmarked) [Compound 023, 8-(azetidin-1-yl)-N-(3-chloro-4-fluorophenyl)-10-methyl-11-oxo-1,3,4,7,8,9,10,11-octahydro-2H-pyrido[4′,3′:3,4]pyrazolo[1,5-a][1,4]diazepine-2-carboxamide], the concentration giving a half-maximal response (EC50) was in the range of 1 to 100 nM. With `CN1CC(N2CCCC2)Cn2nc3c(c2C1=O)CN(C(=O)Nc1ccc(F)c(Cl)c1)CC3` (centres unmarked) [Compound 024, N-(3-chloro-4-fluorophenyl)-10-methyl-11-oxo-8-(pyrrolidin-1-yl)-1,3,4,7,8,9,10,11-octahydro-2H-pyrido[4′,3′:3,4]pyrazolo[1,5-a][1,4]diazepine-2-carboxamide], the EC50 is 1 to 100 nM.
